Measured values from article PMC3532939 (Biochemistry, 2012).

Columns and labels:
[1] = molecular target: T1, SmPabB (Stenotrophomonas maltophilia, UniProt B2FR92); experiment: isothermal titration calorimetry; assay type: binding
T1 sequence (B2FR92 1-454): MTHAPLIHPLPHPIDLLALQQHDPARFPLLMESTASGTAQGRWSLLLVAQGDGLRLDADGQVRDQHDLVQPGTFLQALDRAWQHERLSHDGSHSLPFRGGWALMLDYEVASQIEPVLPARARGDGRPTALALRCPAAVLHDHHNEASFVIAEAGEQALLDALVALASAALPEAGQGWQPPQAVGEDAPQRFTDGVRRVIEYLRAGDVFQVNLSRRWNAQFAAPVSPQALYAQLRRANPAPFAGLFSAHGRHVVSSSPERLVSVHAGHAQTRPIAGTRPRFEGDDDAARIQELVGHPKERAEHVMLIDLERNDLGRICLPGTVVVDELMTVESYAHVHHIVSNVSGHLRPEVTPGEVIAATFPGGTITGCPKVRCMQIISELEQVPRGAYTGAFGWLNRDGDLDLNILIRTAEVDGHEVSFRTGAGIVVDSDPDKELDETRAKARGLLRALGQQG

[2] = molecular target: T2, E. coli PabB (Escherichia coli, UniProt P05041); experiment: LC/MS of bound ligand released from purified protein; assay type: binding; conditions: co-purified tryptophan; vestigial regulatory site
T2 sequence (P05041 1-453): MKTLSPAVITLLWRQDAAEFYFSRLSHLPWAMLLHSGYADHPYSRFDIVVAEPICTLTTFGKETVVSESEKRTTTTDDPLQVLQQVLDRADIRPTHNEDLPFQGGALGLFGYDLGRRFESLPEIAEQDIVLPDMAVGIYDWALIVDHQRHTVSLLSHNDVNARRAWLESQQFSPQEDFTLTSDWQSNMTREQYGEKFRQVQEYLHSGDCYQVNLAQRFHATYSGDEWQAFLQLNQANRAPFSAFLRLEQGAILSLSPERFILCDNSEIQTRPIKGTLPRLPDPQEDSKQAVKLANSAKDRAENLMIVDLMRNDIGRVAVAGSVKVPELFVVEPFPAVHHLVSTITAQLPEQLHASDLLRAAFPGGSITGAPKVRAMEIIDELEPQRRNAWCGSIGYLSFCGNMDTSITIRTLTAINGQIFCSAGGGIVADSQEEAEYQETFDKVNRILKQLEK

[3] = molecular target: T3, Stenotrophomonas maltophilia PabB (aminodeoxychorismate synthase) (Stenotrophomonas maltophilia, UniProt B2FR92 2-454); experiment: other fluorescence titration
T3 sequence: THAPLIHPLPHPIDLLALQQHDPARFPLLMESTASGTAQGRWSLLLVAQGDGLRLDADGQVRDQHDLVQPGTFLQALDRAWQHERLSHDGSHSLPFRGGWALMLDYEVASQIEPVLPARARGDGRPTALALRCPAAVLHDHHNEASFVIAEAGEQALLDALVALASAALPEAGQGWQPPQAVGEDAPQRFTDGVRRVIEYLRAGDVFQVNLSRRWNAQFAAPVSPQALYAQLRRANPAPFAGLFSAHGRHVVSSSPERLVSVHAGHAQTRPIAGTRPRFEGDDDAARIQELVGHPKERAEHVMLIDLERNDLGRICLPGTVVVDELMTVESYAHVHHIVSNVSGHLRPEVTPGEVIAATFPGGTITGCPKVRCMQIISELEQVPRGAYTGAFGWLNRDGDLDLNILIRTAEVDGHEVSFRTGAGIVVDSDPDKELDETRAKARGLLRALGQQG

[4] = molecular target: T4, E. coli PabB (aminodeoxychorismate synthase) (E. coli, UniProt P05041 1-453); experiment: other fluorescence titration
T4 sequence: T2 sequence (P05041 1-453)

## N[C@@H](Cc1c[nH]c2ccccc12)C(=O)O [tryptophan]
[1]
  Kd: ~11700 nM
[2]
  LC/MS of bound ligand released from purified protein: E. coli PabB samples, as expected, contained tryptophan

B1: E. coli PabA (glutamine amidotransferase subunit of aminodeoxychorismate synthase) (enzyme, UniProt P00903 1-187, looked up)
chain: MILLIDNYDSFTWNLYQYFCELGADVLVKRNDALTLADIDALKPQKIVISPGPCTPDEAGISLDVIRHYAGRLPILGVCLGHQAMAQAFGGKVVRAAKVMHGKTSPITHNGEGVFRGLANPLTVTRYHSLVVEPDSLPACFDVTAWSETREIMGIRHRQWDLEGVQFHPESILSEQGHQLLANFLHR
[3]
  Kd: 39 nM
[4]
  Kd: 109 nM
